The values below are quoted from earlier work in patent US20020098247A1, “Methods and compositions for the improvement of insulin sensitivity, reduction of hyperglycemia, and reduction of hypercholesterolemia with chromium complexes and alpha lipoic acid” (priority 2000, published 2002).

The test system of data set [1] is isolated vasculature of diabetic rats.
Data set [2] relates to Patients with Type II diabetes with symptomatic polyneuropathy. The following applies: intravenous, three weeks.
The subject of data set [3] is patients with Type I and Type II diabetes.
Data set [4] has as its system patients with Type II diabetes. The following applies: 600 mg intravenously three weeks, then 6 months tid oral.
Data set [5] deals with patients with Type II diabetes. As to conditions: 600 mg tid orally, three weeks.
For data set [6] the following is noted: rats, oral administration of CrCl3 with the NSAID.

Consider `O=C(O)CCCCC1CCSS1` (stereo not drawn) [alpha-lipoic acid], for which, in data set [1], the “prevention of the deficit in acetylcholine-induced relaxation in isolated vasculature” value was 94%. The “frequency of adverse effects” value in data set [2] (1,200 mg dose group vs other groups) is given as “slightly greater rate of gastrointestinal side effects”. In addition, in data set [2] (two higher doses (600, 1,200 mg per day)), the “decrease of Total Symptom Score (TSS) in the feet” value is “approximately 60%”. Further, in data set [3] (600 or 1,200 mg per day, intravenous five days then oral two years), the “sensory nerve and tibial nerve conduction velocities” value is on record as “improvements”. In data set [3] (600 or 1,200 mg per day, two years), the “Neuropathy Disability Score values” is given as “not significantly affected”. The “incidence or severity of side effects vs placebo” value in data set [3] (two-year study) is given as “no significant differences”. Besides, in data set [4], the “neuropathy as evidenced by the TSS vs placebo” value is listed as “significantly lessened” and the “side effects between groups” value was “no significant differences”. Also, in data set [5], the “TSS in the feet and NDS scores” value was “improvements”; the “side effects vs placebo” value is on record as “No significant differences”.

Consider `CC(=O)Oc1ccccc1C(=O)O` [aspirin, acetylsalicylic acid], for which the chromium absorption result in data set [6] is given as “facilitated”.
